# In US20200147055A1, “COMPOSITIONS AND METHODS FOR TREATING DRY EYE SYNDROME DELIVERING ANTIBIOTIC MACROLIDE” (Eximore Ltd., priority 2017, published 2020):
# Experiment: In vitro release of Tacrolimus from plug samples into releasing medium buffer (PBS + BAK + Triton) at 37 degrees Celsius, HPLC-MS-MS
# Format: physicochemical
# Conditions: implants contain approximately 900 micrograms of TAC
# Method: In an example of an embodiment of the composition of the present invention, plug samples containing Tacrolimus were prepared. Samples were incubated at 37 degrees Celsius for varying times to determine time effect on Tacrolimus release profile from the sample into a polar solution (PBS).
# The solution included the following: 0.01M PBS, 0.005% BAK, and 0.1% TRITON X-100.
# Composite weight 3 mg with 30% Tacrolimus.
# Development of HPLC-MS-MS Method for Tacrolimus (TCM)
# Table 2 provides a list of samples used in the sustained release profile and cumulative sustained release profile illustrated in FIGS. 4 and 5, respectively. Samples 19-1 to 19-8 are Type A, COM TAC 1. Samples 19-9 to 19-16 are Type A, COM TAC 2. Samples 19-17 to 19-24 are Type B, EPO TAC 1. Samples 19-25 to 19-32 are Type B, EPO TAC 2.
smiles,measurement,setting,value
"C=CC[C@@H]1/C=C(\C)C[C@H](C)C[C@H](OC)[C@H]2O[C@@](O)(C(=O)C(=O)N3CCCC[C@H]3C(=O)O[C@H](/C(C)=C/[C@@H]3CC[C@@H](O)[C@H](OC)C3)[C@H](C)[C@@H](O)CC1=O)[C@H](C)C[C@@H]2OC [TAC, (3S,4R,5S,8R,9E,12S,14S,15R,16S,18R,19R,26aS)-5,19-dihydroxy-3-{(1E)-1-[(1R,3R,4R)-4-hydroxy-3-methoxycyclohexyl]prop-1-en-2-yl}-14,16-dimethoxy-4,10,12,18-tetramethyl-8-(prop-2-en-1-yl)-5,6,8,11,12,13,14,15,16,17,18,19,24,25,26,26a-hexadecahydro-3H-15,19-epoxypyrido[2,1-c][1,4]oxazacyclotricosine-1,7,20,21(4H,23H)-tetrone]",TAC average release in vitro,first 3 months,about 1.7 μg/day
same,TAC release in vitro,first month,2 µg/day
same,TAC steady state release in vitro,following 2-3 months,1.5 µg/day
same,estimated duration of release in vitro,,6 months
